Legend:
[1] = molecular target: T1, β5c subunit of isolated human 20S proteasome (Homo sapiens, UniProt P28074); test: Proteasome inhibition assay (20 S Proteasome Assay Kit, Suc‐LLVY‐AMC); assay type: biochemical
T1 construct: purchased Enzo Life Sciences
Outline: (§1)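 Isolated human 20S proteasome (200 ng/well) preincubated 30 min with inhibitor, then 100 μM final Suc-LLVY-AMC (β5c, β5i) or Z-LLE-AMC (β1c) added for 60 min; fluorescence read. Residual activity at 100 nM final (n=3; β5c, β5i) or 1 μM (n=1, incl. β1c). IC50s: technical duplicates, mean of three experiments.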

[2] = molecular target: T2, β5i subunit of isolated human 20S proteasome (Homo sapiens, UniProt P28062); test: as above; assay type: biochemical
T2 construct: purchased Enzo Life Sciences
Outline: as §1

Danio rerio embryos [3] = test: Danio rerio embryo toxicity assay (not dechorionated); assay type: in vivo
Method: Danio rerio embryo toxicity assay. Fish keeping protocols are approved by the Darmstadt administrative authority and documented. All fish were treated humanely. […] Embryos were decollated into separate wells containing a total volume of 200 μL and the inhibitor at the given concentration.

Danio rerio embryos [4] = test: Danio rerio escape response (neurotoxicity) assay, dechorionated embryos; assay type: in vivo; settings: for Survived (embryos of 4): dechorionated
Method: Danio rerio escape response assay. 24 hours past fertilization embryos were dechorionated and transferred into 96‐well plates containing 198 μL of E3 media at 26 °C. […] Incubation times were 24 h, 48 h and 72 h. Survival of the embryos was determined by visual analysis of heart‐beat. For recording the touch evoked escape response, embryos were transferred to a microscopy slide with cavity that is placed on a SL‐300 LED Soft Light (Dörr, Neu‐Ulm, Germany) under a MotionBlitz EoSens mini1‐1 MC1370 high speed camera (Mikrotron, Unterschleißheim, Germany, Figure S18). An escape response was triggered by a touch stimulus at the trunk of embryos using a small sewing needle, which is slightly blunted. For each embryo, a maximum of 50 stimuli was applied. […] No escape response was determined if only one embryo was alive at 96 hpf. Movement was recorded at 96 hpf at 500 frames per second for 3 seconds using the MotionBlitzDirector 2 software. Determination of the amplitude α defined by the body angle spanned between the head, yolk and tail using a MATLAB‐based software tool and plotted using GraphPad Prism 7.02.

THP‐1 cells = test: Cell viability endpoint assay (Celltiter Blue, 72 h); assay type: cell-based; settings: Homo sapiens, mean±SD from two independent experiments
Outline: (§2)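 Proteasome inhibitors were tested at 1 nM to 10 μM final on 50.000 cells/well in RPMI-1640 with 0.1 % FBS, plated overnight beforehand, at 37 °C and 5 % CO2. Reagent was incubated 120 minutes before the fluorescence read. IC50 came from a sigmoidal fit of technical triplicates, as the mean of two independent experiments.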

Jurkat cells = test: as above; assay type: cell-based; settings: Homo sapiens, mean±SD from two independent experiments
Outline: as §2

MV4‐11 cells = test: as above; assay type: cell-based; settings: Homo sapiens, MV4-11, mean±SD from two independent experiments
Outline: as §2

[5] = Danio rerio (zebrafish) embryos, in vivo
[6] = Danio rerio (zebrafish) embryos, in vivo, 24 h, 25 μM
[7] = Danio rerio (zebrafish) embryos, in vivo, 24 h, 50 µM
[8] = Danio rerio (zebrafish) embryos, in vivo, 48 h, 25 μM
[9] = Danio rerio, in vivo, 24 h, 25 µM
[10] = Danio rerio, in vivo, 24 h, 50 µM
[11] = Danio rerio, in vivo, 48 h, 25 µM

Cc1cc(C)c(Oc2ccccc2)cc1NC(=O)C(=O)[C@H](CC(C)C)NC(=O)[C@H](CC(C)C)NC(=O)[C@H](CC(C)C)NC(=O)c1cc(Cl)ccc1Cl [Compound 27, 2,5‐Dichloro‐N‐((S)‐1‐(((S)‐1‐(((S)‐1‐((2,4‐dimethyl‐5‐phenoxyphenyl)amino)‐5‐methyl‐1,2‐dioxo‐hexan‐3‐yl)amino)‐4‐methyl‐1‐oxopentan‐2‐yl)amino)‐4‐methyl‐1‐oxopentan‐2‐yl)benzamide]
inhibition at 1 µM ([1]; c = 1 µM, n=1, read-out: Inhibition cCP β5): 91% | inhibition at 0.1 µM ([1]; c=100 nM, read-out: Rel. Inhibition β5c): 83% | IC50 ([1]; purified proteasome): 23 nM | Fold‐IC50 β5i/β5c ([1]; selectivity β5c over β5i): 4.2 | inhibition at 1 µM ([2]; c = 1 µM, n=1, read-out: Inhibition iCP β5): 68% | inhibition at 0.1 µM ([2]; c=100 nM, read-out: Rel. Inhibition β5i): 58% | IC50 ([2]; purified proteasome): 96 nM | Survival of embryos (not dechorionated) (Danio rerio embryos [3]; 1 µM, 24 h): 100% | Survival of embryos (not dechorionated) (Danio rerio embryos [3]; 1 µM, 48 h): 100% | Survival of embryos (not dechorionated) (Danio rerio embryos [3]; 1 µM, 72 h): 100% | Survival of embryos (not dechorionated) (Danio rerio embryos [3]; 1 µM, 96 h): 100% | Survival of embryos (not dechorionated) (Danio rerio embryos [3]; 5 µM, 24 h): 100% | Survival of embryos (not dechorionated) (Danio rerio embryos [3]; 5 µM, 48 h): 100% | Survival of embryos (not dechorionated) (Danio rerio embryos [3]; 5 µM, 72 h): 100% | Survival of embryos (not dechorionated) (Danio rerio embryos [3]; 5 µM, 96 h): 100% | Survival of embryos (not dechorionated) (Danio rerio embryos [3]; 10 µM, 24 h): 100% | Survival of embryos (not dechorionated) (Danio rerio embryos [3]; 10 µM, 48 h): 100% | Survival of embryos (not dechorionated) (Danio rerio embryos [3]; 10 µM, 72 h): 100% | Survival of embryos (not dechorionated) (Danio rerio embryos [3]; 10 µM, 96 h): 100% | Survival of embryos (not dechorionated) (Danio rerio embryos [3]; 25 µM, 24 h): 100% | Survival of embryos (not dechorionated) (Danio rerio embryos [3]; 25 µM, 48 h): 100% | Survival of embryos (not dechorionated) (Danio rerio embryos [3]; 25 µM, 72 h): 100% | Survival of embryos (not dechorionated) (Danio rerio embryos [3]; 25 µM, 96 h): 100% | Fold-response (Danio rerio embryos [4]; [5]): 29 | Relative reflexes / Stimuli, Mean (Danio rerio embryos [4]; [5]): 0,81 | Number of movements per 100 ms, Difference between means (Danio rerio embryos [4]; [6]): 0,4767 ± 0,4422 | Reflex Duration (Danio rerio embryos [4]; [6]): 295,3 ± 28,5 ms | Relative reflexes / Stimuli (Danio rerio embryos [4]; [6]): 1,000 | mean reflexes per stimuli (Danio rerio embryos [4]; [6]): 100% | C-Bend Duration (Danio rerio embryos [4]; [7]): 19,2 ± 2,2 ms | Number of movements per 100 ms, Difference between means (Danio rerio embryos [4]; [7]): 0,4019 ± 0,4349 | Number of total movements, Difference between means (Danio rerio embryos [4]; [7]): 16,56 ± 4,371 | Relative reflexes / Stimuli (Danio rerio embryos [4]; [7]): 1,000 | mean reflexes per stimuli (Danio rerio embryos [4]; [7]): 100% | Number of movements per 100 ms, Difference between means (Danio rerio embryos [4]; [8]): 0,545 ± 0,4127 | Reflex Duration (Danio rerio embryos [4]; [8]): 403,6 ± 30,9 ms | Relative reflexes / Stimuli (Danio rerio embryos [4]; [8]): 0,545 | mean reflexes per stimuli (Danio rerio embryos [4]; [8]): 55% | C-Bend Amplitude, Difference between means (Danio rerio embryos [4]; [9]): - 2,833 ± 19,93 | C-Bend Duration (Danio rerio embryos [4]; [9]): 14 ± 0,8165 ms | C-Bend duration, Difference between means (Danio rerio embryos [4]; [9]): -5,667 ± 1,826 | Number of total movements, Difference between means (Danio rerio embryos [4]; [9]): - 2,611 ± 3,6 | Reflex Duration (Danio rerio embryos [4]; [9]): 295,3 ± 28,53 ms | Reflex Duration, Difference between means (Danio rerio embryos [4]; [9]): - 95,33 ± 66,93 | C-Bend Amplitude, Difference between means (Danio rerio embryos [4]; [10]): - 7,333 ± 15,18 | C-Bend Duration (Danio rerio embryos [4]; [10]): 19,17 ± 2,212 ms | C-Bend duration, Difference between means (Danio rerio embryos [4]; [10]): - 0,5 ± 2,458 | Reflex Duration (Danio rerio embryos [4]; [10]): 799 ± 91,81 ms | Reflex Duration, Difference between means (Danio rerio embryos [4]; [10]): 408,3 ± 96,75 | C-Bend Amplitude, Difference between means (Danio rerio embryos [4]; [11]): - 9,167 ± 17,34 | C-Bend Duration (Danio rerio embryos [4]; [11]): 15,56 ± 0,5031 ms | C-Bend duration, Difference between means (Danio rerio embryos [4]; [11]): -4,111 ± 1,464 | Number of total movements, Difference between means (Danio rerio embryos [4]; [11]): 1,889 ± 3,151 | Reflex Duration (Danio rerio embryos [4]; [11]): 403,6 ± 30,92 ms | Reflex Duration, Difference between means (Danio rerio embryos [4]; [11]): 12,89 ± 59,4 | overall survival at low doses (Danio rerio embryos [4]; dechorionated embryos): 58% | Survived (embryos of 4) (Danio rerio embryos [4]; 25 µM, 24 h): 2 | Survived (embryos of 4) (Danio rerio embryos [4]; 25 µM, 48 h): 2 | Survived (embryos of 4) (Danio rerio embryos [4]; 50 µM, 24 h): 3 | IC50 (THP‐1 cells): 66 ± 1 nM | IC50 (Jurkat cells): 11 ± 1 nM | IC50 (MV4‐11 cells): 7.4 ± 2.6 nM

— PMC6916368, “Cell‐Based Optimization of Covalent Reversible Ketoamide Inhibitors Bridging the Unprimed to the Primed Site of the Proteasome β5 Subunit” (Chemmedchem, 2019)
